Laboratory results published in PubChem BioAssay (NCI).
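Five concentrations, 48 hours, 96-well plates. The concentration for full growth arrest is given as TGI.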

What was measured:
Assay in all cases: growth of human tumour cells (NCI), 48 h
LOX IMVI melanoma = system: LOX IMVI melanoma
MDA-N = system: MDA-N
SF-268 CNS = system: SF-268 CNS
UO-31 renal = system: UO-31 renal
OVCAR-8 ovarian = system: OVCAR-8 ovarian
BT-549 breast = system: BT-549 breast
MALME-3M melanoma = system: MALME-3M melanoma
HCT-116 colon = system: HCT-116 colon
SF-539 CNS = system: SF-539 CNS
OVCAR-5 ovarian = system: OVCAR-5 ovarian
NCI-H226 lung = system: NCI-H226 lung
EKVX NSCLC = system: EKVX NSCLC
CCRF-CEM leukemia = system: CCRF-CEM leukemia
U251 CNS = system: U251 CNS
HL-60(TB) leukemia = system: HL-60(TB) leukemia
HT29 colon = system: HT29 colon
T-47D breast = system: T-47D breast
DU-145 prostate = system: DU-145 prostate
OVCAR-3 ovarian = system: OVCAR-3 ovarian
HOP-62 NSCLC = system: HOP-62 NSCLC
NCI-H23 lung = system: NCI-H23 lung
PC-3 prostate = system: PC-3 prostate
NCI/ADR-RES ovarian = system: NCI/ADR-RES ovarian
MDA-MB-231 breast = system: MDA-MB-231 breast
HCC-2998 colon = system: HCC-2998 colon
K-562 leukemia = system: K-562 leukemia
MOLT-4 leukemia = system: MOLT-4 leukemia
SK-OV-3 ovarian = system: SK-OV-3 ovarian
SF-295 CNS = system: SF-295 CNS
NCI-H522 lung = system: NCI-H522 lung
SK-MEL-5 melanoma = system: SK-MEL-5 melanoma
786-0 renal = system: 786-0 renal
UACC-62 melanoma = system: UACC-62 melanoma
A498 renal = system: A498 renal
ACHN renal = system: ACHN renal
SNB-19 CNS = system: SNB-19 CNS
CAKI-1 renal = system: CAKI-1 renal
TK-10 renal = system: TK-10 renal
NCI-H460 lung = system: NCI-H460 lung
SK-MEL-2 melanoma = system: SK-MEL-2 melanoma
HOP-92 NSCLC = system: HOP-92 NSCLC
HS 578T breast = system: HS 578T breast
RXF 393 renal = system: RXF 393 renal
RPMI-8226 leukemia = system: RPMI-8226 leukemia
A549 NSCLC = system: A549 NSCLC
IGROV1 ovarian = system: IGROV1 ovarian
OVCAR-4 ovarian = system: OVCAR-4 ovarian
UACC-257 melanoma = system: UACC-257 melanoma
SK-MEL-28 melanoma = system: SK-MEL-28 melanoma
SN12C renal = system: SN12C renal
HCT-15 colon = system: HCT-15 colon
SNB-75 CNS = system: SNB-75 CNS
KM12 colon = system: KM12 colon
MCF7 breast = system: MCF7 breast
M14 melanoma = system: M14 melanoma
SW-620 colon = system: SW-620 colon
MDA-MB-435 = system: MDA-MB-435
SR leukemia = system: SR leukemia
COLO 205 colon = system: COLO 205 colon

Cc1cn([C@@H]2O[C@H](CO[Si](C)(C)C(C)(C)C)[C@]3(O[C@H]3C(=O)NO)[C@H]2O[Si](C)(C)C(C)(C)C)c(=O)[nH]c1=O
TGI (LOX IMVI melanoma): 3.1 µM | TGI (MDA-N): 3.01 µM | TGI (SF-268 CNS): 2.97 µM | TGI (UO-31 renal): 3.28 µM | TGI (OVCAR-8 ovarian): 3.53 µM | TGI (BT-549 breast): 3.29 µM | TGI (MALME-3M melanoma): 5.07 µM | TGI (HCT-116 colon): 2.85 µM | TGI (SF-539 CNS): 2.83 µM | TGI (OVCAR-5 ovarian): 3.33 µM | TGI (NCI-H226 lung): 3.69 µM | TGI (EKVX NSCLC): 3.59 µM | TGI (CCRF-CEM leukemia): 2.76 µM | TGI (U251 CNS): 3.07 µM | TGI (HL-60(TB) leukemia): 3.57 µM | TGI (HT29 colon): 2.92 µM | TGI (T-47D breast): 4.07 µM | TGI (DU-145 prostate): 3.67 µM | TGI (OVCAR-3 ovarian): 3.49 µM | TGI (HOP-62 NSCLC): 3.52 µM | TGI (NCI-H23 lung): 3.66 µM | TGI (PC-3 prostate): 5.66 µM | TGI (NCI/ADR-RES ovarian): 18.5 µM | TGI (MDA-MB-231 breast): 4.19 µM | TGI (HCC-2998 colon): 2.97 µM | TGI (K-562 leukemia): 6.48 µM | TGI (MOLT-4 leukemia): 4.62 µM | TGI (SK-OV-3 ovarian): 3.66 µM | TGI (SF-295 CNS): 3.4 µM | TGI (NCI-H522 lung): 3.12 µM | TGI (SK-MEL-5 melanoma): 3.58 µM | TGI (786-0 renal): 2.87 µM | TGI (UACC-62 melanoma): 3.38 µM | TGI (A498 renal): 3.33 µM | TGI (ACHN renal): 3.06 µM | TGI (SNB-19 CNS): 3.18 µM | TGI (CAKI-1 renal): 4.31 µM | TGI (TK-10 renal): 5.35 µM | TGI (NCI-H460 lung): 3.15 µM | TGI (SK-MEL-2 melanoma): 3.9 µM | TGI (HOP-92 NSCLC): 4.17 µM | TGI (HS 578T breast): 4.23 µM | TGI (RXF 393 renal): 3.34 µM | TGI (RPMI-8226 leukemia): 2.84 µM | TGI (A549 NSCLC): 3.63 µM | TGI (IGROV1 ovarian): 3.19 µM | TGI (OVCAR-4 ovarian): 3.77 µM | TGI (UACC-257 melanoma): 6.92 µM | TGI (SK-MEL-28 melanoma): 3.33 µM | TGI (SN12C renal): 3.08 µM | TGI (HCT-15 colon): 3.62 µM | TGI (SNB-75 CNS): 3.71 µM | TGI (KM12 colon): 3.71 µM | TGI (MCF7 breast): 3.15 µM | TGI (M14 melanoma): 3.56 µM | TGI (SW-620 colon): 4.28 µM | TGI (MDA-MB-435): 4.38 µM

Clc1ccc(/C=C/c2nc(-c3ccccc3)cn3c2nc2ccccc23)cc1Cl
TGI (LOX IMVI melanoma): > 100 µM | TGI (MDA-N): > 100 µM | TGI (SF-268 CNS): > 100 µM | TGI (UO-31 renal): > 100 µM | TGI (BT-549 breast): > 100 µM | TGI (HCT-116 colon): > 100 µM | TGI (SF-539 CNS): > 100 µM | TGI (OVCAR-5 ovarian): > 100 µM | TGI (NCI-H226 lung): > 100 µM | TGI (EKVX NSCLC): > 100 µM | TGI (CCRF-CEM leukemia): 48 µM | TGI (U251 CNS): > 100 µM | TGI (HL-60(TB) leukemia): 49.7 µM | TGI (HT29 colon): > 100 µM | TGI (T-47D breast): > 100 µM | TGI (DU-145 prostate): > 100 µM | TGI (OVCAR-3 ovarian): > 100 µM | TGI (HOP-62 NSCLC): > 100 µM | TGI (NCI-H23 lung): > 100 µM | TGI (PC-3 prostate): > 100 µM | TGI (NCI/ADR-RES ovarian): > 100 µM | TGI (MDA-MB-231 breast): > 100 µM | TGI (HCC-2998 colon): > 100 µM | TGI (K-562 leukemia): > 100 µM | TGI (MOLT-4 leukemia): > 100 µM | TGI (SK-OV-3 ovarian): > 100 µM | TGI (SK-MEL-5 melanoma): > 100 µM | TGI (786-0 renal): > 100 µM | TGI (UACC-62 melanoma): > 100 µM | TGI (A498 renal): > 100 µM | TGI (ACHN renal): > 100 µM | TGI (SNB-19 CNS): > 100 µM | TGI (TK-10 renal): > 100 µM | TGI (NCI-H460 lung): > 100 µM | TGI (SK-MEL-2 melanoma): > 100 µM | TGI (HOP-92 NSCLC): > 100 µM | TGI (RXF 393 renal): > 100 µM | TGI (RPMI-8226 leukemia): > 100 µM | TGI (A549 NSCLC): > 100 µM | TGI (IGROV1 ovarian): > 100 µM | TGI (OVCAR-4 ovarian): > 100 µM | TGI (UACC-257 melanoma): > 100 µM | TGI (SK-MEL-28 melanoma): > 100 µM | TGI (SN12C renal): > 100 µM | TGI (HCT-15 colon): > 100 µM | TGI (SR leukemia): > 100 µM | TGI (KM12 colon): > 100 µM | TGI (COLO 205 colon): > 100 µM | TGI (MCF7 breast): > 100 µM | TGI (M14 melanoma): > 100 µM | TGI (SW-620 colon): > 100 µM | TGI (MDA-MB-435): > 100 µM
